Like-named read-outs stand apart in the source and are kept apart here.
Assays:
myocardial tissue = settings: acetylcholine 1 μM, cited from earlier work
[1] = oral pirenzepine 100-300 mg co-administered with donepezil, healthy volunteers
[2] = in vivo; cited from earlier work

Row | SMILES | suppression of the effect of acetylcholine (myocardial tissue; antagonist 1 μM) | further results
1 | C[N+]1(C)CCC(OC(=O)C(c2ccccc2)c2ccccc2)CC1.[I-] [4DAMP, 4-[(Diphenylacetyl)oxy]-1,1-dimethylpiperidin-1-ium iodide] |  | suppression of the effect of acetylcholine (myocardial tissue; antagonist 0.1 μM): did not suppress the effect of acetylcholine
2 | CCN(CC)CCCCC1CCN(CC(=O)N2c3ccccc3C(=O)Nc3cccnc32)CC1 [AQ-RA 741, 11-[[4-[4-(diethylamino)butyl]-1-piperidinyl]acetyl]-5,11-dihydro-6H-pyrido[2,3-b] [1,4]benzodiazepin-6-one] | partial suppression of the effect of acetylcholine | 
3 | CN1[C@@H]2CC[C@H]1C[C@@H](OC(=O)C(CO)c1ccccc1)C2 (stereo partly drawn) [atropine] | completely abolished the effect of acetylcholine | 
4 | CN1CCN(CC(=O)N2c3ccccc3C(=O)Nc3cccnc32)CC1 [pirenzepine, 11-[(4-methylpiperazin-1-yl)acetyl]-5,11-dihydro-6H-pyrido[2,3-b][1,4]benzodiazepin-6-one] | did not suppress the effect of acetylcholine | increase in the tolerated dose of donepezil [1]: enabling the safe increase in the dose of donepezil
5 | O=C(O[C@H]1CN2CCC1CC2)N1CCc2ccccc2[C@@H]1c1ccccc1 [solifenacin] |  | effect on QTc [2]: increase in QTc

Reference: patent publication US20230364104A1, “PHARMACEUTICAL COMBINATION FOR THE TREATMENT OF HUMAN HYPOCHOLINERGIC DISORDERS” (priority 2020, published 2023)
